Converted amounts (≈) assume the structure as drawn.
Columns and labels:
[1] = tested on: T1, B. adolescentis; experiment: microbe, parasite or virus in culture; design: Microbial growth in liquid dilution assay, OD600 relative to DMSO control; conditions: Bifidobacterium adolescentis; estimated IC50; read-out: B. adolescentis, IC50 (µM) estimate
T1 construct: DSM 20083
Method in brief: (§1)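 Growth of commensal bacteria was measured in a dilution assay with test compounds at concentrations including 30 µM. In a separate radial diffusion format, bacteria were exposed to compounds for 24–48 h and growth inhibition zones were measured.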

[2] = tested on: T2, B. thetaiotaomicron; experiment: microbe, parasite or virus in culture; design: Microbial growth in liquid dilution assay, OD600 relative to DMSO control; conditions: Bacteroides thetaiotaomicron; estimated IC50; read-out: B. thetaiotaomicron, IC50 (µM) estimate
T2 construct: DSM 2079
Method in brief: as §1

[3] = tested on: T3, E. coli; experiment: microbe, parasite or virus in culture; design: Microbial growth in liquid dilution assay, OD600 relative to DMSO control; conditions: Escherichia coli; estimated IC50; read-out: E. coli, IC50 (µM) estimate
T3 construct: DSM 301
Method in brief: as §1

[4] = tested on: T4, E. faecalis; experiment: microbe, parasite or virus in culture; design: Microbial growth in liquid dilution assay, OD600 relative to DMSO control; conditions: Enterococcus faecalis; estimated IC50; read-out: E. faecalis, IC50 (µM) estimate
T4 construct: DSM 20478
Method in brief: as §1

[5] = tested on: T5, L. reuteri; experiment: microbe, parasite or virus in culture; design: Microbial growth in liquid dilution assay, OD600 relative to DMSO control; conditions: Limosilactobacillus reuteri; estimated IC50; read-out: L. reuteri, IC50 (µM) estimate
T5 construct: DSM 20016
Method in brief: as §1

[6] = tested on: T6, L. crispatus; experiment: microbe, parasite or virus in culture; design: Microbial growth in liquid dilution assay, OD600 relative to DMSO control; conditions: Lactobacillus crispatus; estimated IC50; read-out: L. crispatus, IC50 (µM) estimate
T6 construct: DSM 20584

[7] = tested on: T7, L. iners; experiment: organism not typed; design: Microbial growth in liquid dilution assay, OD600 relative to DMSO control; conditions: estimated IC50; read-out: L. iners, IC50 (µM) estimate
T7 construct: DSM 13335

[8] = tested on: T8, G. vaginalis; experiment: microbe, parasite or virus in culture; design: Microbial growth in liquid dilution assay, OD600 relative to DMSO control; conditions: Gardnerella vaginalis, read-out: G. vaginalis, IC50 (µM) estimate
T8 construct: DSM 4944

[9] = tested on: T9, C. albicans; experiment: microbe, parasite or virus in culture; design: Microbial growth in liquid dilution assay, OD600 relative to DMSO control; conditions: Candida albicans, read-out: C. albicans, IC50 (µM) estimate
T9 construct: DSM 1577

[10] = tested on: T10, CTL2-GFP (C. trachomatis L2/434/Bu, GFP-expressing); experiment: microbe, parasite or virus in culture; design: Intracellular C. trachomatis growth in HeLa cells, bulk GFP fluorescence relative to DMSO; conditions: Chlamydia trachomatis, HeLa, 28.5 h; bulk GFP
T10 construct: L2/434/Bu, GFP-expressing
Procedure: (§2) MICs were calculated as described above.

[11] = tested on: T10, CTL2-GFP (C. trachomatis L2/434/Bu, GFP-expressing); experiment: microbe, parasite or virus in culture; design: species or system HeLa; Intracellular C. trachomatis growth in HeLa cells, bulk GFP fluorescence relative to DMSO; conditions: Chlamydia trachomatis, 28.5 h; bulk GFP
Procedure: as §2

[12] = target: T11, ctFabH (CTL2 FabH), His6(-fMet)SG-ctFabH (Chlamydia trachomatis, UniProt O84242); experiment: continuous UV assay of acetoacetyl-CoA at […] nm; type: biochemical; conditions: 20 µM enzyme, 100 µM acetyl-CoA, 100 µM malonyl-CoA, pH 8.0, 25 °C, 50 mM MgCl2; surrogate of malonyl-ACP
T11 construct: synthetic gene, modified pRSF-Duet1, E. coli host; partly acylated (mainly pentanoyl) as purified
T11 sequence (O84242 2-327): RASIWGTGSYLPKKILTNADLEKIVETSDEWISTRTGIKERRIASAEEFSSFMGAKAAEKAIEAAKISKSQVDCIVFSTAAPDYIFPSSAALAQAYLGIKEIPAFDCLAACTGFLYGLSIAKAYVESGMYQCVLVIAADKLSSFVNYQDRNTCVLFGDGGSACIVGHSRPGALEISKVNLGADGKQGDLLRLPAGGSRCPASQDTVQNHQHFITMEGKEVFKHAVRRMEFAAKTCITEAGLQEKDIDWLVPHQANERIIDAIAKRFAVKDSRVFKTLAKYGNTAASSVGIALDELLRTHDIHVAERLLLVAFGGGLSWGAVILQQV

[13] = in vitro; design: Viability of infected HeLa host cells, resazurin conversion, bulk resorufin fluorescence relative to DMSO; conditions: human, hela cells; bulk resorufin, single well
[14] = in vitro; design: Viability of infected HeLa host cells, resazurin conversion, bulk resorufin fluorescence relative to DMSO; conditions: human, hela cells; bulk resorufin, mean of 3
[15] = tested on: T10, CTL2-GFP (C. trachomatis L2/434/Bu, GFP-expressing); experiment: microbe, parasite or virus in culture; design: C. trachomatis growth in HeLa, dose-response, mean of bulk GFP fluorescence and imaged total inclusion area; conditions: Chlamydia trachomatis, HeLa, 28.5 h; mean of GFP and inclusion area
Method in brief: (§3)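 A 36,785-compound library was screened using bulk GFP and resorufin fluorescence, followed by Hoechst staining and high-content imaging of inclusions (GFP) and host nuclei. Inclusion area and number served as growth proxies and nuclei counts as a viability proxy. MICs were calculated from these readouts.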

[16] = tested on: T10, CTL2-GFP (C. trachomatis L2/434/Bu, GFP-expressing); experiment: microbe, parasite or virus in culture; design: species or system HeLa; C. trachomatis growth in HeLa, dose-response, mean of bulk GFP fluorescence and imaged total inclusion area; conditions: Chlamydia trachomatis, 28.5 h; mean of GFP and inclusion area
Method in brief: as §3

| SMILES | IC50 [1] | IC50 [2] | IC50 [3] | IC50 [4] | IC50 [5] | IC50 [10] | MIC [11] | further results |
| --- | --- | --- | --- | --- | --- | --- | --- | --- |
| CCc1cccc(OCC(=O)Nc2ccc(S(=O)(=O)Nc3onc(C)c3C)cc2)c1 [c2v] | > 30 µM | > 30 µM | > 30 µM | > 30 µM | > 30 µM | 0.471 µM | 0.693 µM (≈ 0.298 µg/mL) | IC50 [6]: > 30 µM; IC50 [7]: > 30 µM; IC50 [8]: > 30 µM; IC50 [9]: > 30 µM |
| CC(C)(COP(=O)(O)OP(=O)(O)OC[C@H]1O[C@@H](n2cnc3c(N)ncnc32)[C@H](O)[C@@H]1OP(=O)(O)O)[C@@H](O)C(=O)NCCC(=O)NCCSC(=O)CC(=O)O [malonyl-CoA] |  |  |  |  |  |  |  | continuous UV assay of acetoacetyl-CoA at 302 nm [12]: using acetyl-CoA and malonyl-CoA (instead of malonyl-ACP) as substrates |
| Cc1cc(NS(=O)(=O)c2ccc(NC(=O)COc3ccc(Cl)c(C)c3)cc2)no1 [c3v] | > 30 µM | > 30 µM | > 30 µM | > 30 µM | > 30 µM | 0.773 µM | 0.829 µM (≈ 0.361 µg/mL) |  |
| CCOC(=O)CC(C)(O)P(=O)(OC)OC (centres unmarked) [CBK261287] |  |  |  |  |  |  |  | viability at 28.5 h, 10 µM [13]: 101% |
| Cc1ccc(C(=O)/C=C/Nc2ccc(S(=O)(=O)Nc3onc(C)c3C)cc2)cc1 [c4v] | > 30 µM | > 30 µM | > 30 µM | > 30 µM | > 30 µM | 1.32 µM | 1.88 µM (≈ 0.775 µg/mL) |  |
| O=C(CC1CCN(CCc2ccccc2)CC1)Nc1cccc(-n2cccn2)c1 [c4e] | > 30 µM | > 30 µM | > 30 µM | > 30 µM | > 30 µM |  |  | viability at 28.5 h, 0.000416667 µM [14]: 92.2%; viability at 28.5 h, 0.00125 µM [14]: 95.9%; viability at 28.5 h, 0.00375 µM [14]: 89.2%; viability at 28.5 h, 0.0123333 µM [14]: 92.7%; viability at 28.5 h, 0.037 µM [14]: 90.6%; viability at 28.5 h, 0.111 µM [14]: 94.2%; viability at 28.5 h, 0.333 µM [14]: 86.2%; viability at 28.5 h, 1 µM [14]: 89.9%; viability at 28.5 h, 3 µM [14]: 82.9%; viability at 28.5 h, 10 µM [14]: 88.5%; viability at 28.5 h, 30 µM [14]: 87.2%; IC50 [15]: 0.332 µM; IC50 [6]: > 30 µM; IC50 [7]: > 30 µM; IC50 [8]: > 30 µM; IC50 [9]: > 30 µM; MIC [16]: 1.56 µM (≈ 0.605 µg/mL) |
| O=C(c1cccc(S(=O)(=O)F)c1)N1CCCCC1 [CBK074224] |  |  |  |  |  |  |  | viability at 28.5 h, 10 µM [13]: 96.6% |
